Data taken from publication PMC8764033, “Single-molecule analysis of specificity and multivalency in binding of short linear substrate motifs to the APC/C” (Nature Communications, 2022).
pKd: −log10 of the molar value. Where a SMILES comes first, the peptide text is derived from it.

Tests used:
Cdh1 WD40 domain (yeast) = target: T1, Cdh1 WD40 domain (yeast) (Saccharomyces cerevisiae, UniProt P53197); test: Fluorescence anisotropy, 10 nM Cy5-labeled degron peptide, yeast Cdh1 WD40; type: binding; conditions: up to 30.6 µM Cdh1^WD40; for pKd: Fig. 1a, mean of 2 or 3 independent experiments, wash buffer B, 25 °C, dark peptide where named 100 µM unlabeled, read-out: KD (mean ± SE)
T1 construct: the WD40 domains of yeast Cdh1 (aa 241–550; pNH144); 2xStrep-Tag II (N); made in house; host or cells: Sf9 insect cells (baculovirus)
T1 sequence (P53197 241-550): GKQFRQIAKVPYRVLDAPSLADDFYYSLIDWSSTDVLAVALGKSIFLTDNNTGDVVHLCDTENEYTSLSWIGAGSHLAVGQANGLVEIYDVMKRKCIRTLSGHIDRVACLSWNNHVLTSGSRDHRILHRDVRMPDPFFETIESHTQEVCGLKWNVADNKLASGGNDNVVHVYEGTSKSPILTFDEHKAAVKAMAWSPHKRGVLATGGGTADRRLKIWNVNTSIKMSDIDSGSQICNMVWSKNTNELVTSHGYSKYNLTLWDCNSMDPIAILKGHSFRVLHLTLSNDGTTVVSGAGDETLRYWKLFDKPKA
Source text: To determine the affinities of APC/C degrons for their binding sites, we first used conventional equilibrium binding assays of degron peptide binding to the activator. We used the baculovirus system to produce the WD40 domain of Cdh1 from the budding yeast Saccharomyces cerevisiae and measured fluorescence anisotropy to assess the binding of fluorescently-tagged degron peptides at increasing activator concentrations. The WD40 domain of yeast Cdc20 could not be expressed and was not studied.
Activators were cloned into the pFastBac HT A vector, with an N-terminal 2xStrep-Tag II. For some experiments, we constructed vectors for expression of the WD40 domains of yeast Cdh1 (aa 241–550; pNH144), human Cdh1 (aa 165–484; pNH164), or human Cdc20 (aa 162–484; pNH188). For SMOR, a C-terminal GFP tag was added. Bacmid plasmids are listed in Supplementary Table 3. Plasmids were transformed into DH10Bac cells, and purified Bacmid was used to transfect Sf9 cells to generate P1 baculovirus, which was used to generate P2 virus. SF9 cells were infected with the P2 virus for 48 h. Flash-frozen pellets were lysed by sonication or high-pressure homogenization in lysis buffer B (50 mM Tris-HCl pH 8, 150 mM KCl, 0.5 mM EDTA, 1 mM DTT, 10% Glycerol, EDTA-free protease inhibitor tablet, 1 µg ml^−1 pepstatin A). After the lysate was applied to the StrepTrap column, the column was washed with wash buffer B (lysis buffer B lacking protease inhibitors) and eluted in the same buffer containing 2.5 mM desthiobiotin.
Fluorescent degron peptides carried a C-terminal Cy5 label (CPC Scientific) and are listed in Supplementary Table 4. For anisotropy experiments, 10 nM fluorescent peptide was mixed with various concentrations of purified Cdh1 WD40 in wash buffer B at room temperature for 1 min, which we determined was sufficient for the binding reaction to reach equilibrium. Fluorescence was measured on a K2 Multifrequency Fluorometer at 25 °C. All Cy5-labeled peptides were excited with polarized light at 635 nm and emission was detected using a 700/75 nm bandpass filter (ET series, Chroma). […] Data were fitted to one-site equilibrium binding using GraphPad Prism version 8.4 to determine KD. Results were the same when peptide binding was measured in the buffer used in SMOR assays (buffer C, below).

hCdc20^WD40 = target: T2, hCdc20^WD40 (Homo sapiens, UniProt Q12834); test: Fluorescence anisotropy, 10 nM Cy5-labeled peptide, hCdc20^WD40; type: binding
T2 construct: human Cdc20 (aa 162–484; pNH188); made in house; host or cells: Sf9 insect cells (baculovirus)
T2 sequence (Q12834 162-484): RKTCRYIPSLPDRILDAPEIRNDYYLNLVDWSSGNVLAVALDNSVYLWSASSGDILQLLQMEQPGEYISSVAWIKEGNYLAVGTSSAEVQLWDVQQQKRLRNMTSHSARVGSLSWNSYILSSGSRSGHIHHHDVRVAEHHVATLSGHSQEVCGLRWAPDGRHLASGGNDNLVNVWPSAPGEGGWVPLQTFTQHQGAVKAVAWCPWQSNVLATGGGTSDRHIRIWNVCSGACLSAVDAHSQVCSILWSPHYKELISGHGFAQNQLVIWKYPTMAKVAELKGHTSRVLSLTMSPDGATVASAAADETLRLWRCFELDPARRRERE

Compound | binding to Cdh1 (in words) (Cdh1 WD40 domain (yeast)) | pKd (Cdh1 WD40 domain (yeast)) | binding to human Cdc20 (in words) (hCdc20^WD40)
SKAAQFMLYEETAEERNI-K(Cy5) [Acm1 ABBA, Cy5-labeled Cdh1-specific ABBA motif from pseudosubstrate yeast protein Acm1] | bound with very low affinity to Cdh1 | – | –
CC[C@H](C)[C@H](NC(=O)[C@H](Cc1ccccc1)NC(=O)[C@H](CO)NC(=O)[C@H](CCCCN)NC(=O)[C@H](CO)NC(=O)[C@H](CCCNC(=N)N)NC(=O)[C@H](CC(N)=O)NC(=O)[C@H](CC(N)=O)NC(=O)[C@H](CC(=O)O)NC(=O)[C@H](CCCCN)NC(=O)[C@H](C)NC(=O)[C@H](C)NC(=O)[C@H](CC(C)C)NC(=O)[C@@H]1CCCN1C(=O)[C@H](CC(C)C)NC(=O)[C@H](CCCNC(=N)N)NC(=O)CNC(=O)[C@H](CCC(N)=O)NC(=O)[C@H](CCC(N)=O)NC(=O)[C@H](CCC(N)=O)NC(=O)[C@H](C)N)C(=O)N[C@@H](CCCCN)C(=O)O [ySecurin D box] (H-AQQQGRLPLAAKDNNRSKSFIK-OH; N-terminus and C-terminus assumed) | Neither D box displayed significant binding to Cdh1 | < 4.51 | –
LPKATRKALGTVNRATEKSVK-K(Cy5) [AurKB D box, Cy5-labeled D box peptide of Aurora B kinase] | – | – | not Cdc20
CC(C)C[C@H](NC(=O)[C@H](C)NC(=O)[C@H](CCCNC(=N)N)NC(=O)[C@H](CCCNC(=N)N)NC(=O)[C@@H]1CCCN1C(=O)[C@H](CCCCN)NC(=O)[C@H](CO)NC(=O)[C@H](CC(=O)O)NC(=O)[C@@H](N)CCC(N)=O)C(=O)N[C@H](C(=O)N[C@@H](CC(=O)O)C(=O)N[C@H](C(=O)N1CCC[C@H]1C(=O)N[C@H](C(=O)N[C@@H](CC(N)=O)C(=O)N[C@@H](CC(N)=O)C(=O)N[C@@H](CC(N)=O)C(=O)N1CCC[C@H]1C(=O)N[C@@H](CC(C)C)C(=O)N[C@@H](CO)C(=O)N[C@@H](CCC(N)=O)C(=O)N[C@@H](CCCCN)C(=O)O)C(C)C)C(C)C)[C@@H](C)O [Clb5 D box] (H-QDSKPRRALTDVPVNNNPLSQK-OH; N-terminus and C-terminus assumed) | Neither D box displayed significant binding to Cdh1 | < 4.51 | –
CC[C@H](C)[C@H](NC(=O)[C@H](CC(=O)O)NC(=O)[C@H](CO)NC(=O)[C@H](C)NC(=O)[C@H](C)NC(=O)[C@H](C)NC(=O)[C@H](C)NC(=O)[C@H](CCCCN)NC(=O)[C@@H]1CCCN1C(=O)[C@H](CCCCN)NC(=O)[C@H](CCC(N)=O)NC(=O)[C@@H](N)CCC(=O)O)C(=O)N[C@H](C(=O)N[C@@H](C)C(=O)N[C@@H](CO)C(=O)N[C@@H](Cc1ccccc1)C(=O)N[C@@H](CC(N)=O)C(=O)N[C@@H](CCCCN)C(=O)N[C@@H](CCSC)C(=O)N[C@@H](CC(N)=O)C(=O)N[C@@H](CCCCN)C(=O)O)[C@@H](C)O [Hsl1 D box mutant] (H-EQKPKAAAASDITASFNKMNK-OH; N-terminus and C-terminus assumed) | Binding was abolished | < 4.51 | –
LIYVDKENGEPGTR-K(Cy5) [hSecurin KEN, Cy5-labeled KEN box peptide of human securin/Pttg1] | – | – | not Cdc20
